Results from PMC8783508, “A novel D-amino acid peptide with therapeutic potential (ISAD1) inhibits aggregation of neurotoxic disease-relevant mutant Tau and prevents Tau toxicity in vitro” (Alzheimer's Research & Therapy, 2022).
Non-standard residues stand in square brackets, D forms with d. Residues, ends and D or L forms follow the SMILES beside them.

Legend:
Tau^FLΔK = biological target: T1, Tau^FLΔK (Homo sapiens, UniProt P10636, DEL597-597); assay: Fibrillization of Tau^FLΔK monitored by ThS assay; format: biochemical; details: Tau:peptide = 1:1; 1:5; 1:10
T1 construct: Tau^FLΔK Full-length Tau mutant ΔK280
Procedure: For Tau fibrillization inhibition assays, 10 μM Tau mutant protein (Tau^RDΔK, Tau^FLΔK, Tau^FL-A152T, Tau^FL-P301L) was incubated in BES buffer (N,N-bis(2-hydroxyethyl)-2-aminoethanesulfonic acid, pH 7) in the presence of 2.5 μM heparin at 37 °C for 24 h with and without novel D-peptides (ISAD1 and ISAD1rev) at different concentrations (1 nM to 200 μM). Final concentration of 20 μM ThS was used for monitoring fibrillization. The assay was performed with 40-μl sample volume per well in a 384-well microtiter plate (Thermo LabSystems, Dreieich, Germany). The fibrillization of Tau was monitored by ThS and the relative fluorescence intensity of ThS was read out at 440 excitation/521 emission nm in a Tecan micro titer plate reader (Tecan, Männedorf, Switzerland).

N2a-Tau^RDΔK cells = assay: MTT cytotoxicity of the peptides alone; format: cell-based; details: 25, 50, 100, 250 μM peptide, 24 h, n = 3
Procedure: Cell viability was analyzed in accordance with the manufacturer’s protocol (Roche Diagnostics, Mannheim, Germany; cell proliferation kit II (MTT)). This assay is based on the cleavage of the yellow tetrazolium salt MTT into purple formazan dye by metabolic active cells. The color changes only in viable cells and can be directly quantified using a scanning multiwell spectrophotometer. In all experiments, the cells were grown as described previously. The cells (25,000 cells/well or 80% confluence) were plated on poly D-lysine-coated 96-well plates (Greiner Bio-One GmbH, Frickenhausen, Germany) for stronger attachment from overnight to 24 h at 37 °C. Fibrillized Tau^RDΔK was generated by incubating 200 μM Tau^RDΔK in BES buffer at 37 °C for 24 h in the presence of 2 mM D-peptides (Tau^RDΔK:peptide = 1:10). Successful fibrillization was verified using ThS (5 μM Tau^RDΔK, 10 μM ThS) measurement. The aggregated Tau^RDΔK (10 μM final concentration), Tau^RDΔK (10 μM) + peptide (100 μM) samples (ISAD1 and ISAD1rev), buffer only (negative control, set to 100% cell viability), and TritonX-100 (2%, cytotoxic agent, positive control) were incubated on N2a-Tau^RDΔK cells (100 μl solution) for another 24 h. The cell viability was measured in accordance with the manufacturer’s protocol.
A MTT-based cytotoxicity assay in the presence of ISAD1 and ISAD1rev peptides. […]

T1 sequence (P10636 with tags, fused parts or gaps isoform P10636-8 DEL280-280): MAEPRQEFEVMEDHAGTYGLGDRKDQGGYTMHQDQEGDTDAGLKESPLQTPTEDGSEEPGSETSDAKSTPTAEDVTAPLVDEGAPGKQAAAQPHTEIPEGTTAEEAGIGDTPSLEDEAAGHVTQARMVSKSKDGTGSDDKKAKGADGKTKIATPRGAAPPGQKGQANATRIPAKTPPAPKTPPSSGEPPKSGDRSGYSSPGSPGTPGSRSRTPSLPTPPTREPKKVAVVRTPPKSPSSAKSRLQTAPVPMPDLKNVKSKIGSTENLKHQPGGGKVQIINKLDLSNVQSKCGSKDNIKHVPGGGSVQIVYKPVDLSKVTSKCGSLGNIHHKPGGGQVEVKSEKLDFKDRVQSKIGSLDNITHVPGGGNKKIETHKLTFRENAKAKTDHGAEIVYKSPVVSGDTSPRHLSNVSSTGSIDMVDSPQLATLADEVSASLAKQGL

**Q.** `CC(C)C[C@@H](NC(=O)[C@@H](CO)NC(=O)[C@@H](CC(C)C)NC(=O)[C@H](NC(=O)[C@@H](CC(=O)O)NC(=O)[C@@H](C)NC(=O)[C@@H](C)NC(=O)[C@H](N)CO)[C@H](C)O)C(=O)N[C@H](CCCCN)C(=O)N[C@H](Cc1ccccc1)C(=O)N[C@@H](C(=O)N[C@H](CO)C(=O)O)C(C)C` [ISAD1rev] (H-[dS][dA][dA][dD][dT][dL][dS][dL][dK][dF][dV][dS]-OH; N-terminus and C-terminus assumed) was tested. Which “Inhibition of Tau^FLΔK fibrillization, in words” value (Tau^FLΔK) did it give?
**A.** The value was “weak inhibitory effects”.

**Q.** What about the “Cytotoxicity, MTT” value (N2a-Tau^RDΔK cells) of the same compound?
**A.** Its value is “do not induce toxic effects”.
